Source: US9556202B2, “Sulfonamide derivatives and methods of use thereof for improving the pharmacokinetics of a drug” (MERCK SHARP & DOHME CORP., priority 2012, dated 2017)

Tests used:
CYP1A2 = biological target: T1, CYP1A2 (Homo sapiens, UniProt P05177); assay: Cocktail CYP inhibition assay in human liver microsomes, phenacetin O-deethylation; type: in vitro ADME; conditions: human liver microsomes 0.1 mg/mL, 10 μM phenacetin, 10 min 37° C.; test conc. up to 10 μM; unit inferred
T1 construct: 0.1 mg/mL protein human liver microsomes (BD Gentest); tissue BD Gentest; host or cells: human liver microsomes
T1 sequence (P05177 1-516): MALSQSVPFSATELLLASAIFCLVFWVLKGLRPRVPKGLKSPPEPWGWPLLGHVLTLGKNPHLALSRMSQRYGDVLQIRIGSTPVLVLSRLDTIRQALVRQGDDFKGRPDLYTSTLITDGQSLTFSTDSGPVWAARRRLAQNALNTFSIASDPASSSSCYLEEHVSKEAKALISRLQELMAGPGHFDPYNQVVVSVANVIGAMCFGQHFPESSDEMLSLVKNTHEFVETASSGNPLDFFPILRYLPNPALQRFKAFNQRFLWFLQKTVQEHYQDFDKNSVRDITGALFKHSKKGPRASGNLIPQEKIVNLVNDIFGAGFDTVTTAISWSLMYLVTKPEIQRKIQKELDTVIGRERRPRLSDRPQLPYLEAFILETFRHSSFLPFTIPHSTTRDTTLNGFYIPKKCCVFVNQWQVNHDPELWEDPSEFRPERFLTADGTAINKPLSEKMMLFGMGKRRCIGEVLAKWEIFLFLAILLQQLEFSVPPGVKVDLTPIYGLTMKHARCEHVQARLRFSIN
Method: (§1) Determination of IC50 in a Cocktail Assay for CYPs 1A2, 2C9, 2C19, 2D6 and 3A4
(§2) This assay was performed in a standard 96-well plate design. IC50 values were calculated from the percent inhibition observed for each test compound at 6 concentrations (for example, 0.0032, 0.016, 0.08, 0.4, 2 and 10 μM). The incubation substrate mix contains 10 μM phenacetin (1A2), 5 μM diclofenac (2C9), 30 μM mephenytoin (2C19), 5 μM dextromethorphan (2D6) and 2 μM midazolam (3A4), 0.1 mg/mL protein human liver microsomes (BD Gentest), 1 mM NAPDH, 3.3 mM MgCl2 and 100 mM potassium phosphate buffer (pH 7.4). The production of the metabolite of each probe substrate was determined after incubation for 10 min at 37° C. Quantitation of the metabolite peak area ratio against an internal standard (tolbutamide) was determined by LC/MS/MS analysis following acetonitrile treatment of the incubations.
(§3) Samples were analyzed in the MRM mode with a SCIEX API-4000 mass spectrometer (Applied Biosystems, Foster City, Calif.), with a Shimadzu LC-20 AD pump (Shimadzu corporation, Kyoto, JP) and a CTC PAL autosampler (Agilent Technologies, Switzerland). A Phenomenex, Luna, 5 μm, 100 A, 2.00×30 mm HPLC column was used for the separation. The mobile phases were: (A) 0.1% formic acid in water and (B) 0.1% formic acid in acetonitrile. The binary gradient was as follows.
(§4) The peak area ratio of the analyte to the internal standard was used to quantify the metabolite. The values of peak area ratios in the presence of test compound were compared to those of maximum or minimum controls and were expressed as % inhibition by interpolating between the maximum and minimum peak area ratios. Incubations with no inhibitor were defined as the maxima.
(§5) The following equation was used to calculate the % inhibition: [1−[(X−Low control)/(High control−Low control)]]*100
(§6) For the IC50 calculation, SigmaPlot was used to plot the mean % inhibition versus the test compound concentrations and for non-linear regression analysis of the data. […]

human CYP11B2 = biological target: T2, human CYP11B2 (Homo sapiens, UniProt P19099); assay: IC50 vs CYP11B2 by aldosterone synthesis in V79 cells (HTRF); type: cell-based; conditions: V79 cells expressing human CYP11B2, 750 nM DOC, test conc. 0.5-10000 nM, unit inferred
T2 construct: expressed in transfected cells
T2 sequence (P19099 25-503): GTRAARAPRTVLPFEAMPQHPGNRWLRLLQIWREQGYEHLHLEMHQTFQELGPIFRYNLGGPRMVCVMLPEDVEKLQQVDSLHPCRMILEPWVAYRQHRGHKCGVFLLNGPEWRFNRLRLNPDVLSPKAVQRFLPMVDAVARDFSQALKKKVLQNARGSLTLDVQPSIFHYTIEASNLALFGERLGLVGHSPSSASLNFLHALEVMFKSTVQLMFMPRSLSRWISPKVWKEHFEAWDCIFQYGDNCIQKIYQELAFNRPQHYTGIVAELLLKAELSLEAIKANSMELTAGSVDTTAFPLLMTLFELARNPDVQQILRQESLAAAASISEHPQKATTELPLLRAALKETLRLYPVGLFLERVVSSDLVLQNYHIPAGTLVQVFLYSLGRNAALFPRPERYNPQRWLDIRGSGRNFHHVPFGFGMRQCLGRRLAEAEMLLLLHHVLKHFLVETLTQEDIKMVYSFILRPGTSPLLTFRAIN
Method: Determination of IC50 Vs CYP11B1/CYP11B2 by Measurement of Cortisol/Aldosterone Synthesis
This assay was performed in a standard 384-well plate design using cultured V79 cells stably expressing human CYP11B1 or human CYP11B2. Test compounds at 10 concentrations (for example, 10000, 3333.3, 1111.1, 370.4, 123.5, 41.2, 13.7, 4.6, 1.5 and 0.5 nM) were added in 384-well plate after the cell-seeding procedure. The incubation substrate contains 1500 nM RSS for CYP11B1 assay/750 nM DOC for CYP11B2 assay. The Cortisol/Aldosterone production of cell culture supernatant was determined by Cortisol/Aldosterone HTRF kit after for about 15 hours incubation at RT (protect from light). IC50 values were calculated from the percent inhibition observed for each test compound at 10 concentrations.
The assay plate was read using Envision (Perkin Elmer, Waltham, Mass.) at 665 nm and 590 nm (using Filter Barcode of 217#, 205#; Mirror Barcode of 446#).
Data are analyzed using Assay Data Analyzer. All ratio data (665 nm/590 nm) are back calculated according to the standard curve, resulting in Cortisol/Aldosterone concentrations. IC50 values are reported as the Inflection Point (IP) of a four parameter fit of the titration data.
The following equation was used to calculate the % inhibition: % Activity=100×{1−(Sample_back calculated Cortisol/Aldosterone concentration−LC_back calculated Cortisol/Aldosterone concentration)/(HC_back calculated Cortisol/Aldosterone concentration−LC_back calculated Cortisol/Aldosterone concentration)} Curve Fitting: Four Parameter Logistic: […]

CYP2C9 = biological target: T3, CYP2C9 (Homo sapiens, UniProt P11712); assay: Cocktail CYP inhibition assay in human liver microsomes, diclofenac 4'-hydroxylation; type: in vitro ADME; conditions: human liver microsomes 0.1 mg/mL, 5 μM diclofenac, 10 min 37° C.; unit inferred
T3 construct: 0.1 mg/mL protein human liver microsomes (BD Gentest); tissue BD Gentest; host or cells: human liver microsomes
T3 sequence (P11712 whole entry): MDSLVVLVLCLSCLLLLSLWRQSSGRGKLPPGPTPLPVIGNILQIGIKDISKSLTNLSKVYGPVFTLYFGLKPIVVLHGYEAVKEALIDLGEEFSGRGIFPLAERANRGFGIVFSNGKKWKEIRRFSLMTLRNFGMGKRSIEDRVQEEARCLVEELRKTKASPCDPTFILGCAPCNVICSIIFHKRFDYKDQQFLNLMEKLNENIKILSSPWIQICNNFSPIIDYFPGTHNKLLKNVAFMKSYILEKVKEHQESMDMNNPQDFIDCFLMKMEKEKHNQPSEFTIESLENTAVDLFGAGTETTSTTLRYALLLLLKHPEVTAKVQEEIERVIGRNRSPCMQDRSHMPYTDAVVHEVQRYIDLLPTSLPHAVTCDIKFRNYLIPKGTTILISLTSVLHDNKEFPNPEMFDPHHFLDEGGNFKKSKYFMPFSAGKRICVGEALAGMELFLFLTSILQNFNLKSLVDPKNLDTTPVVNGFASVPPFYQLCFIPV
Method: as §1, §2, §3, §4, §5, §6

`COCCC(c1cncn1[C@H](C)c1ccc(F)cc1)N1CCN(S(=O)(=O)c2cnc(N3CCN(C)CC3)s2)CC1` (single isomer, unassigned) [Compound 36] showed an IC50 (CYP1A2) of over 10 µM, an IC50 (human CYP11B2) of 3.83 µM and an IC50 (CYP2C9) of over 10 µM.

`COCC(c1cncn1[C@H](C)c1ccc(F)cc1)N1CCN(S(=O)(=O)c2cnc(N3CCN(C)CC3)s2)CC1` (single isomer, unassigned) [Compound 35] was tested, and the IC50 (CYP1A2) was over 10 µM, the IC50 (human CYP11B2) was 5 µM and the IC50 (CYP2C9) was over 10 µM.

In the case of `C[C@H](c1ccc(F)cc1)n1cncc1C1CCCC2CN(S(=O)(=O)c3cnc(Nc4ccccn4)s3)CCN21` (single isomer, unassigned) [Compound 38], the IC50 (CYP1A2) is reported as over 10 µM, the IC50 (human CYP11B2) is reported as 1.31 µM and the IC50 (CYP2C9) is reported as 1.22 µM.
